Source: patent US20240299469A1, “PRODUCTION OF INDOLE-DERIVED METABOLITES BY SHELF-STABLE COMMUNITIES OF SAFE BACTERIA” (Imvela Corp., priority 2023, published 2024)

Assay: Storage stability in pet chew matrix
Assay type: physicochemical
Details: water activity (aw) 0.4, 4 weeks of storage
Method: Stability of Bacillus Strains 1-3 was measured in a pet chew matrix with water activity (aw) level of 0.4, which is typically growth-prohibitive for other bacteria such as Lactobacillus. While Lactobacillus viability declined over 4 weeks of storage, Bacillus Strains 1-3 remained viable for 4 weeks, with loss of viability being less than <0.5 log 10 (FIGS. 3B and 3D).

Lactobacillus
viability over storage: declined
